Laboratory results from US5143911A, “Antibiotic C-3 di-hydroxyphenyl substituted cephalosporin compounds, compositions and method of use thereof” (Bristol-Myers Squibb Company, priority 1990, dated 1992).
Converted amounts (≈) assume the structure as drawn.

Columns and labels:
P. aeruginosa KKA 19 = details: Pseudomonas aeruginosa, KKA19, 18 h, pH 7.2
S. marcescens IPM-16 = details: Serratia marcescens, IPM16, 18 h, pH 7.2
S. aureus 4-1015 (MRSA) = details: Staphylococcus aureus, 18 h, pH 7.2
P. cepacia A21213 = type: cell-based; details: Burkholderia cepacia, pH 7.2, 32° C. 18 hr, 10^6 cells/ml
X. maltophilia GN 12873 = details: Stenotrophomonas maltophilia, GN12873, 18 h, pH 7.2
X. maltophilia No. 661 = details: Stenotrophomonas maltophilia, NO.661, 18 h, pH 7.2
P. rettgeri IPM-14 = details: Providencia rettgeri, IPM14, 18 h, pH 7.2
S. aureus 209P = details: Staphylococcus aureus, 18 h, pH 7.2
S. aureus Smith = details: Staphylococcus aureus, 18 h, pH 7.2
S. epidermidis 11-1168 = type: cell-based; details: Staphylococcus epidermidis, 111168, pH 7.2, 32° C. 18 hr, 10^6 cells/ml
B. subtilis PCI 219 = details: Bacillus subtilis, PCI219, 18 h, pH 7.2
M. morgani 1510/9 = details: 18 h, pH 7.2
E. faecalis A9808 = details: Enterococcus faecalis, A9808, 18 h, pH 7.2
P. mirabilis IFO-2849 = details: Proteus mirabilis, IFO2849, 18 h, pH 7.2
P. vulgaris IPM-13 = type: cell-based; details: Proteus vulgaris, IPM13, pH 7.2, 32° C. 18 hr, 10^6 cells/ml
P. aeruginosa IPM-8 = details: Pseudomonas aeruginosa, IPM8, 18 h, pH 7.2
P. aeruginosa A20599 = type: cell-based; details: Pseudomonas aeruginosa, pH 7.2, 32° C. 18 hr, 10^6 cells/ml
E. coli 255 = details: Escherichia coli, 255, 18 h, pH 7.2
E. coli Juhl A15119 = details: Escherichia coli, JUHLA15119, 18 h, pH 7.2
E. cloacae IPM-12 = details: Enterobacter cloacae, IPM12, 18 h, pH 7.2
P. aeruginosa IPM-9 = details: Pseudomonas aeruginosa, IPM9, 18 h, pH 7.2
S. aureus IPM-24 (MRSA) = details: Staphylococcus aureus, 18 h, pH 7.2
P. cepacia No. 651 = details: Burkholderia cepacia, NO.651, 18 h, pH 7.2
E. faecium A24817 = type: cell-based; details: Enterococcus faecium, pH 7.2, 32° C. 18 hr, 10^6 cells/ml
S. marcescens IPM-15 = details: Serratia marcescens, IPM15, 18 h, pH 7.2
K. pneumoniae PCI 602 = details: Klebsiella pneumoniae, PCI602, 18 h, pH 7.2
M. luteus 1001 = details: Micrococcus luteus, 1001, 18 h, pH 7.2
S. epidermidis 11-1230 = details: Staphylococcus epidermidis, 111230, 18 h, pH 7.2
C. terrigena IFO 12685 = details: 18 h, pH 7.2
C. freundii GN 7391 = details: Citrobacter freundii, GN7391, 18 h, pH 7.2
M. morgani 1510 = details: 18 h, pH 7.2

**Q.** Which results are given for `Nc1nc(/C(=N/O)C(=O)NC2C(=O)N3C(C(=O)O)=C(/C=C/COC(=O)c4ccc(O)c(O)c4)CSC23)cs1` (stereo not shown) [Id, 7-[(Z)-2-(2-Aminothiazol-4-yl)-2-hydroxyiminoacetamido]-3-[(E)-3l-(3,4-dihydroxybenzoyloxy)-1-propen-1-yl]-3-cephem-4-carboxylic acid]?
**A.** MIC (P. aeruginosa KKA 19): > 100 µg/mL; MIC (S. marcescens IPM-16): > 100 µg/mL; MIC (S. aureus 4-1015 (MRSA)): 6.3 µg/mL (≈ 11.2 µM); MIC (P. cepacia A21213): > 100 µg/mL; MIC (X. maltophilia GN 12873): > 100 µg/mL; MIC (X. maltophilia No. 661): > 100 µg/mL; MIC (P. rettgeri IPM-14): 0.4 µg/mL (≈ 0.712 µM); MIC (S. aureus 209P): 0.8 µg/mL (≈ 1.42 µM); MIC (S. aureus Smith): 0.8 µg/mL (≈ 1.42 µM); MIC (S. epidermidis 11-1168): 3.1 µg/mL (≈ 5.52 µM); MIC (B. subtilis PCI 219): 0.4 µg/mL (≈ 0.712 µM); MIC (M. morgani 1510/9): 0.2 µg/mL (≈ 0.356 µM); MIC (E. faecalis A9808): 12.5 µg/mL (≈ 22.3 µM); MIC (P. mirabilis IFO-2849): 0.2 µg/mL (≈ 0.356 µM); MIC (P. vulgaris IPM-13): > 100 µg/mL; MIC (P. aeruginosa IPM-8): > 100 µg/mL; MIC (P. aeruginosa A20599): > 100 µg/mL; MIC (E. coli 255): 0.8 µg/mL (≈ 1.42 µM); MIC (E. coli Juhl A15119): 0.2 µg/mL (≈ 0.356 µM); MIC (E. cloacae IPM-12): > 100 µg/mL; MIC (P. aeruginosa IPM-9): > 100 µg/mL; MIC (S. aureus IPM-24 (MRSA)): 100 µg/mL (≈ 178 µM); MIC (P. cepacia No. 651): > 100 µg/mL; MIC (E. faecium A24817): 100 µg/mL (≈ 178 µM); MIC (S. marcescens IPM-15): > 100 µg/mL; MIC (K. pneumoniae PCI 602): 0.025 µg/mL (≈ 0.0445 µM); MIC (M. luteus 1001): 0.2 µg/mL (≈ 0.356 µM); MIC (S. epidermidis 11-1230): 6.3 µg/mL (≈ 11.2 µM); MIC (C. terrigena IFO 12685): 0.8 µg/mL (≈ 1.42 µM); MIC (C. freundii GN 7391): 50 µg/mL (≈ 89 µM); MIC (M. morgani 1510): 6.3 µg/mL (≈ 11.2 µM)
